# According to the NIST ThermoML archive (doi:10.1016/j.jct.2019.03.039):
# ± gives the expanded uncertainty stated by the source.
# Assay: mn = molality of the nth substance listed, in mol/kg
# Details: 101.3 kPa, Liquid; for viscosity: Capillary tube (Ostwald / Ubbelohde) method; for speed of sound: Frequency=4 MHz, Linear variable-path acoustic interferometer; for mass density: Vibrating tube method
smiles,measurement,setting,value
Cc1ncc(C[n+]2csc(CCO)c2C)c(N)n1.Cl.[Cl-] [thiamine hydrochloride] + O,viscosity,"293.15 K, m1 = 0.0497",1.048 ± 0.033 mPa·s
same,viscosity,"293.15 K, m1 = 0.0502",1.048 ± 0.033 mPa·s
same,viscosity,"293.15 K, m1 = 0.1003",1.071 ± 0.033 mPa·s
same,viscosity,"293.15 K, m1 = 0.1008",1.071 ± 0.033 mPa·s
same,viscosity,"293.15 K, m1 = 0.1498",1.101 ± 0.033 mPa·s
same,viscosity,"293.15 K, m1 = 0.1505",1.101 ± 0.033 mPa·s
same,speed of sound,"293.15 K, m1 = 0.0497",1490.4 ± 1.7 m/s
same,speed of sound,"293.15 K, m1 = 0.0503",1490.4 ± 1.7 m/s
same,speed of sound,"293.15 K, m1 = 0.1003",1498.5 ± 1.7 m/s
same,speed of sound,"293.15 K, m1 = 0.1008",1498.5 ± 1.7 m/s
same,speed of sound,"293.15 K, m1 = 0.1498",1507.2 ± 1.8 m/s
same,speed of sound,"293.15 K, m1 = 0.1505",1507.2 ± 1.8 m/s
same,mass density,"293.15 K, m1 = 0.0497",1003.19 ± 0.36 kg/m3
same,mass density,"293.15 K, m1 = 0.0502",1003.19 ± 0.36 kg/m3
same,mass density,"293.15 K, m1 = 0.1003",1008.06 ± 0.36 kg/m3
same,mass density,"293.15 K, m1 = 0.1008",1008.06 ± 0.36 kg/m3
same,mass density,"293.15 K, m1 = 0.1498",1013.01 ± 0.36 kg/m3
same,mass density,"293.15 K, m1 = 0.1505",1013.01 ± 0.36 kg/m3
same,viscosity,"298.15 K, m1 = 0.0497",0.9193 ± 0.032 mPa·s
same,viscosity,"298.15 K, m1 = 0.0502",0.9193 ± 0.032 mPa·s
same,viscosity,"298.15 K, m1 = 0.1003",0.954 ± 0.032 mPa·s
same,viscosity,"298.15 K, m1 = 0.1008",0.954 ± 0.032 mPa·s
same,viscosity,"298.15 K, m1 = 0.1498",0.9913 ± 0.032 mPa·s
same,viscosity,"298.15 K, m1 = 0.1505",0.9913 ± 0.032 mPa·s
same,speed of sound,"298.15 K, m1 = 0.0497",1504.1 ± 1.8 m/s
same,speed of sound,"298.15 K, m1 = 0.0503",1504.1 ± 1.8 m/s
same,speed of sound,"298.15 K, m1 = 0.1003",1512.6 ± 1.8 m/s
same,speed of sound,"298.15 K, m1 = 0.1008",1512.6 ± 1.8 m/s
same,speed of sound,"298.15 K, m1 = 0.1498",1520.8 ± 1.8 m/s
same,speed of sound,"298.15 K, m1 = 0.1505",1520.8 ± 1.8 m/s
same,mass density,"298.15 K, m1 = 0.0497",1001.99 ± 0.36 kg/m3
same,mass density,"298.15 K, m1 = 0.0502",1001.99 ± 0.36 kg/m3
same,mass density,"298.15 K, m1 = 0.1003",1006.87 ± 0.36 kg/m3
same,mass density,"298.15 K, m1 = 0.1008",1006.87 ± 0.36 kg/m3
same,mass density,"298.15 K, m1 = 0.1498",1011.77 ± 0.36 kg/m3
same,mass density,"298.15 K, m1 = 0.1505",1011.77 ± 0.36 kg/m3
same,viscosity,"303.15 K, m1 = 0.0497",0.8251 ± 0.032 mPa·s
same,viscosity,"303.15 K, m1 = 0.0502",0.8251 ± 0.032 mPa·s
same,viscosity,"303.15 K, m1 = 0.1003",0.8569 ± 0.032 mPa·s
same,viscosity,"303.15 K, m1 = 0.1008",0.8569 ± 0.032 mPa·s
same,viscosity,"303.15 K, m1 = 0.1498",0.8892 ± 0.032 mPa·s
same,viscosity,"303.15 K, m1 = 0.1505",0.8892 ± 0.032 mPa·s
same,speed of sound,"303.15 K, m1 = 0.0497",1516.7 ± 1.8 m/s
same,speed of sound,"303.15 K, m1 = 0.0503",1516.7 ± 1.8 m/s
same,speed of sound,"303.15 K, m1 = 0.1003",1524.1 ± 1.8 m/s
same,speed of sound,"303.15 K, m1 = 0.1008",1524.1 ± 1.8 m/s
same,speed of sound,"303.15 K, m1 = 0.1498",1532.7 ± 1.8 m/s
same,speed of sound,"303.15 K, m1 = 0.1505",1532.7 ± 1.8 m/s
same,mass density,"303.15 K, m1 = 0.0497",1000.56 ± 0.36 kg/m3
same,mass density,"303.15 K, m1 = 0.0502",1000.56 ± 0.36 kg/m3
same,mass density,"303.15 K, m1 = 0.1003",1005.44 ± 0.36 kg/m3
same,mass density,"303.15 K, m1 = 0.1008",1005.44 ± 0.36 kg/m3
same,mass density,"303.15 K, m1 = 0.1498",1010.29 ± 0.36 kg/m3
same,mass density,"303.15 K, m1 = 0.1505",1010.29 ± 0.36 kg/m3
same,viscosity,"308.15 K, m1 = 0.0497",0.7565 ± 0.032 mPa·s
same,viscosity,"308.15 K, m1 = 0.0502",0.7565 ± 0.032 mPa·s
same,viscosity,"308.15 K, m1 = 0.1003",0.7753 ± 0.032 mPa·s
same,viscosity,"308.15 K, m1 = 0.1008",0.7753 ± 0.032 mPa·s
same,viscosity,"308.15 K, m1 = 0.1498",0.8015 ± 0.032 mPa·s
same,viscosity,"308.15 K, m1 = 0.1505",0.8015 ± 0.032 mPa·s
same,speed of sound,"308.15 K, m1 = 0.0497",1526.9 ± 1.8 m/s
same,speed of sound,"308.15 K, m1 = 0.0503",1526.9 ± 1.8 m/s
same,speed of sound,"308.15 K, m1 = 0.1003",1533.7 ± 1.8 m/s
same,speed of sound,"308.15 K, m1 = 0.1008",1533.7 ± 1.8 m/s
same,speed of sound,"308.15 K, m1 = 0.1498",1542.5 ± 1.8 m/s
same,speed of sound,"308.15 K, m1 = 0.1505",1542.5 ± 1.8 m/s
same,mass density,"308.15 K, m1 = 0.0497",998.93 ± 0.36 kg/m3
same,mass density,"308.15 K, m1 = 0.0502",998.93 ± 0.36 kg/m3
same,mass density,"308.15 K, m1 = 0.1003",1003.79 ± 0.36 kg/m3
same,mass density,"308.15 K, m1 = 0.1008",1003.79 ± 0.36 kg/m3
same,mass density,"308.15 K, m1 = 0.1498",1008.62 ± 0.36 kg/m3
same,mass density,"308.15 K, m1 = 0.1505",1008.62 ± 0.36 kg/m3
same,viscosity,"313.15 K, m1 = 0.0497",0.6772 ± 0.032 mPa·s
same,viscosity,"313.15 K, m1 = 0.0502",0.6772 ± 0.032 mPa·s
same,viscosity,"313.15 K, m1 = 0.1003",0.7057 ± 0.032 mPa·s
same,viscosity,"313.15 K, m1 = 0.1008",0.7057 ± 0.032 mPa·s
same,viscosity,"313.15 K, m1 = 0.1498",0.7388 ± 0.032 mPa·s
same,viscosity,"313.15 K, m1 = 0.1505",0.7388 ± 0.032 mPa·s
same,speed of sound,"313.15 K, m1 = 0.0497",1535.5 ± 1.8 m/s
same,speed of sound,"313.15 K, m1 = 0.0503",1535.5 ± 1.8 m/s
same,speed of sound,"313.15 K, m1 = 0.1003",1542.8 ± 1.8 m/s
same,speed of sound,"313.15 K, m1 = 0.1008",1542.8 ± 1.8 m/s
same,speed of sound,"313.15 K, m1 = 0.1498",1551.1 ± 1.8 m/s
same,speed of sound,"313.15 K, m1 = 0.1505",1551.1 ± 1.8 m/s
same,mass density,"313.15 K, m1 = 0.0497",997.193 ± 0.36 kg/m3
same,mass density,"313.15 K, m1 = 0.0502",997.193 ± 0.36 kg/m3
same,mass density,"313.15 K, m1 = 0.1003",1002 ± 0.36 kg/m3
same,mass density,"313.15 K, m1 = 0.1008",1002 ± 0.36 kg/m3
same,mass density,"313.15 K, m1 = 0.1498",1006.76 ± 0.36 kg/m3
same,mass density,"313.15 K, m1 = 0.1505",1006.76 ± 0.36 kg/m3
O [water] + Cc1ncc(C[n+]2csc(CCO)c2C)c(N)n1.Cl.[Cl-],viscosity,"293.15 K, m2 = 0",1.002 ± 0.032 mPa·s
same,viscosity,"298.15 K, m2 = 0",0.8906 ± 0.032 mPa·s
same,viscosity,"303.15 K, m2 = 0",0.7975 ± 0.032 mPa·s
same,viscosity,"308.15 K, m2 = 0",0.7193 ± 0.032 mPa·s
same,speed of sound,"308.15 K, m2 = 0",1519.3 ± 1.8 m/s
same,mass density,"308.15 K, m2 = 0",994.059 ± 0.36 kg/m3
same,viscosity,"313.15 K, m2 = 0",0.6531 ± 0.032 mPa·s
same,speed of sound,"313.15 K, m2 = 0",1528.7 ± 1.8 m/s
O [water] + N=C(N)NCCC[C@H](N)C(=O)O,viscosity,"293.15 K, m2 = 0",1.002 ± 0.032 mPa·s
same,viscosity,"298.15 K, m2 = 0",0.8906 ± 0.032 mPa·s
same,viscosity,"303.15 K, m2 = 0",0.7975 ± 0.032 mPa·s
same,viscosity,"308.15 K, m2 = 0",0.7193 ± 0.032 mPa·s
same,speed of sound,"308.15 K, m2 = 0",1519.3 ± 1.8 m/s
same,mass density,"308.15 K, m2 = 0",994.059 ± 0.37 kg/m3
same,viscosity,"313.15 K, m2 = 0",0.6531 ± 0.032 mPa·s
same,speed of sound,"313.15 K, m2 = 0",1528.7 ± 1.8 m/s
O [water] + N[C@@H](CO)C(=O)O,viscosity,"293.15 K, m2 = 0",1.002 ± 0.032 mPa·s
same,viscosity,"298.15 K, m2 = 0",0.8906 ± 0.032 mPa·s
same,viscosity,"303.15 K, m2 = 0",0.7975 ± 0.032 mPa·s
same,viscosity,"308.15 K, m2 = 0",0.7193 ± 0.032 mPa·s
same,speed of sound,"308.15 K, m2 = 0",1519.3 ± 1.8 m/s
same,mass density,"308.15 K, m2 = 0",994.059 ± 0.37 kg/m3
same,viscosity,"313.15 K, m2 = 0",0.6531 ± 0.032 mPa·s
same,speed of sound,"313.15 K, m2 = 0",1528.7 ± 1.8 m/s
